Molecular target: T1, KCNQ 2/3 channels (HEK293 cells stably expressing human KCNQ2 and KCNQ3 subunits) (Homo sapiens, UniProt O43525+O43526)
T1 construct: expressed in transfected cells; host or cells: HEK293
Experiment: KCNQ2/3 channel activation, thallium flux FLIPR assay with BTC-AM dye
Type: cell-based
Conditions: for Emax: HEK293, read-out: Max. %; for EC50: HEK293 cells expressing human KCNQ2 and KCNQ3, thallium flux, FLIPR
Method: The following example describes the assay that can be used to identify compounds that activate KCNQ 2/3 channels.
HEK293 cells stably expressing human KCNQ2 and KCNQ3 subunits were seeded in 96-well, black-walled, clear-bottomed, poly-D-lysine coated plates (BD Biosciences, Bedford, Mass.) at a density of 1×10^5 cells per well 24 hours before the assay. On the assay day, BTC-AM dye (Invitrogen, Carlsbad, Calif.) was loaded into the cells by replacing the cell culture medium with 55 μL/well of 3 μg/mL dye in DPBS. Dye loading was allowed to proceed for 2 hours at room temperature and then cells were washed twice with 50 μL/well of assay buffer (in mM: 10 HEPES pH 7.3, 5 glucose, 140 Na-gluconate, 2.5 K-gluconate, 3.6 Ca-gluconate, 2 MgSO4, 0.1 Ouabain) to remove unloaded dye. Cells were incubated in 50 μL of assay buffer before loading onto a FLIPR system (Molecular Devices, Sunnyvale, Calif.). Various concentrations of compounds to be assayed were added to the cells in 50 μL of assay buffer and incubated for 4 minutes. The fluorescence signal was initiated by adding 100 μL of assay buffer containing 6 mM TlNO3 and 10 mM K2SO4. Fluors were excited using the 488-nm line of an argon laser and emission was filtered using a 540±30 nm bandpass filter. Fluorescent signals were recorded for 3 minutes. Sums of the responses over basal responses were plotted versus concentrations of test compounds to obtain an EC50 value. The maximum response for each test compound was determined relative to the response produced by 10 μM retigabine. The maximum response of retigabine at 10 μM was set at 100%.

[1] = maximum response relative to the response produced by 10 μM retigabine (set at 100%)

SMILES | Emax [1] [%] | EC50 [µM] | Max. % [1] [%]
O=C(C[C@H]1C[C@@H]2CC[C@H]1C2)Nn1nc(Cc2ccccc2)c2ccccc2c1=O (racemic) [Example 141, (±)-N-(4-benzyl-1-oxophthalazin-2(1H)-yl)-2-(exo-bicyclo[2.2.1]hept-2-yl)acetamide] | 130 | < 0.1 | 
O=C(CC1CC2CCC1C2)Nn1nc(Cc2ccc(Cl)cc2)c2ccccc2c1=O (racemic) [Example 144, (±)-2-(exo-bicyclo[2.2.1]hept-2-yl)-N-[4-(4-chlorobenzyl)-1-oxophthalazin-2(1H)-yl]acetamide] | 139 | < 0.1 | 
COc1ccc(-c2nn(NC(=O)CC3CC4CCC3C4)c(=O)c3ccccc23)cc1 (racemic) [Example 151, (±)-2-(exo-bicyclo[2.2.1]hept-2-yl)-N-[4-(4-methoxyphenyl)-1-oxophthalazin-2(1H)-yl]acetamide] | 141 | < 0.1 | 
Cc1ccc(C)c(-c2nn(NC(=O)CC3CC4CCC3C4)c(=O)c3ccccc23)c1 (racemic) [Example 155, (±)-2-(exo-bicyclo[2.2.1]hept-2-yl)-N-[4-(2,5-dimethylphenyl)-1-oxophthalazin-2(1H)-yl]acetamide] |  | < 0.1 | 165
Cc1ccc(-c2nn(NC(=O)CC3CC4CCC3C4)c(=O)c3ccccc23)cc1C (racemic) [Example 163, (±)-2-(exo-bicyclo[2.2.1]hept-2-yl)-N-[4-(3,4-dimethylphenyl)-1-oxophthalazin-2(1H)-yl]acetamide] | 177 | < 0.1 | 
O=C(C[C@H]1C[C@@H]2CC[C@H]1C2)Nn1nc(C2(c3ccccc3)CC2)c2ccccc2c1=O (racemic) [Example 172, (±)-2-(exo-bicyclo[2.2.1]hept-2-yl)-N-[1-oxo-4-(1-phenylcyclopropyl)phthalazin-2(1H)-yl]acetamide] | 195 | < 0.1 | 
O=C(Nn1nc(-c2ccc(Cl)cc2)c2ccccc2c1=O)[C@@H]1C[C@H]1c1ccccc1 (relative stereo) [Example 120, trans-N-[4-(4-chlorophenyl)-1-oxophthalazin-2(1H)-yl]-2-phenylcyclopropanecarboxamide] | 103 | 0.5 to 1 | 
CC(C)c1nn(NC(=O)Cc2ccc(Cl)cc2)c(=O)c2ccccc12 [Example 1, 2-(4-chlorophenyl)-N-(4-isopropyl-1-oxophthalazin-2(1H)-yl)acetamide] | 125 | 0.1 to 0.5 | 
O=C(CC12CC3CC(CC(C3)C1)C2)Nn1nc(-c2ccc(Br)cc2)c2ccccc2c1=O [Example 2, 2-(1-adamantyl)-N-[4-(4-bromophenyl)-1-oxophthalazin-2(1H)-yl]acetamide] | 193 | 0.1 to 0.5 | 
CC(C)c1nn(NC(=O)Cc2cc(F)cc(F)c2)c(=O)c2ccccc12 [Example 5, 2-(3,5-difluorophenyl)-N-(4-isopropyl-1-oxophthalazin-2(1H)-yl)acetamide] | 136 | 0.1 to 0.5 | 
CC(C)c1nn(NC(=O)CC23CC4CC(CC(C4)C2)C3)c(=O)c2ccccc12 [Example 6, 2-(1-adamantyl)-N-(4-isopropyl-1-oxophthalazin-2(1H)-yl)acetamide] | 200 | < 0.1 | 
O=C(CC12CC3CC(CC(C3)C1)C2)Nn1nc(-c2ccccc2)c2cccnc2c1=O [Example 7, 2-(1-adamantyl)-N-(8-oxo-5-phenylpyrido[2,3-d]pyridazin-7(8H)-yl)acetamide] | 136 | 1 to 10 | 
O=C(CC12CC3CC(CC(C3)C1)C2)Nn1nc(-c2ccccc2)c2sccc2c1=O [Example 9, 2-(1-adamantyl)-N-(4-oxo-7-phenylthieno[2,3-d]pyridazin-5(4H)-yl)acetamide] | 241 | 0.5 to 1 | 
O=C(CC12CC3CC(CC(C3)C1)C2)Nn1nc(C(F)(F)F)c2ccccc2c1=O [Example 12, 2-(1-adamantyl)-N-[1-oxo-4-(trifluoromethyl)phthalazin-2(1H)-yl]acetamide] | 169 | 0.1 to 0.5 | 
O=C(Cc1ccc(Cl)cc1)Nn1nc(C(F)(F)F)c2ccccc2c1=O [Example 13, 2-(4-chlorophenyl)-N-[1-oxo-4-(trifluoromethyl)phthalazin-2(1H)-yl]acetamide] | 47 | 0.1 to 0.5 | 
O=C(Cc1ccc(F)cc1)Nn1nc(-c2ccccc2)c2c(F)ccc(F)c2c1=O [Example 14, N-(5,8-difluoro-1-oxo-4-phenylphthalazin-2(1H)-yl)-2-(4-fluorophenyl)acetamide] | 171 | 0.1 to 0.5 | 
O=C(Cc1ccc(Cl)cc1)Nn1nc(-c2ccccc2)c2c(F)ccc(F)c2c1=O [Example 16, 2-(4-chlorophenyl)-N-(5,8-difluoro-1-oxo-4-phenylphthalazin-2(1H)-yl)acetamide] | 175 | 0.1 to 0.5 | 
O=C(Cc1cc(F)cc(F)c1)Nn1nc(-c2ccccc2)c2ccccc2c1=O [Example 18, 2-(3,5-difluorophenyl)-N-(1-oxo-4-phenylphthalazin-2(1H)-yl)acetamide] | 189 | 0.1 to 0.5 | 
O=C(Cc1cc(F)cc(F)c1)Nn1nc(Cl)c2ccccc2c1=O [Example 19, N-(4-chloro-1-oxophthalazin-2(1H)-yl)-2-(3,5-difluorophenyl)acetamide] | 45 | 1 to 10 | 
O=C(Cc1ccc(Cl)cc1)Nn1nc(C2CC2)c2ccccc2c1=O [Example 22, 2-(4-chlorophenyl)-N-(4-cyclopropyl-1-oxophthalazin-2(1H)-yl)acetamide] | 63 | 1 to 10 | 

Now from value to compound:

Emax [1] [%] | EC50 [µM] | Max. % [1] [%] | SMILES
157 | < 0.1 |  | Cc1ccc(-c2nn(NC(=O)CC3CC4CCC3C4)c(=O)c3ccccc23)c(C)c1 (racemic) [Example 160, (±)-2-(exo-bicyclo[2.2.1]hept-2-yl)-N-[4-(2,4-dimethylphenyl)-1-oxophthalazin-2(1H)-yl]acetamide]
144 | < 0.1 |  | O=C(CC1CC2CCC1C2)Nn1nc(CCc2ccccc2)c2ccccc2c1=O (racemic) [Example 167, (±)-2-(exo-bicyclo[2.2.1]hept-2-yl)-N-[1-oxo-4-(2-phenylethyl)phthalazin-2(1H)-yl]acetamide]
134 | 0.1 to 0.5 |  | CC(C)c1ccc(-c2nn(NC(=O)C[C@H]3C[C@@H]4CC[C@H]3C4)c(=O)c3ccccc23)cc1 (racemic) [Example 168, (±)-2-(exo-bicyclo[2.2.1]hept-2-yl)-N-[4-(4-isopropylphenyl)-1-oxophthalazin-2(1H)-yl]acetamide]
154 | < 0.1 |  | O=C(CC1CC2CCC1C2)Nn1nc(-c2ccc(Cl)cc2)c2c(F)ccc(F)c2c1=O (racemic) [Example 184, (±)-2-(exo-bicyclo[2.2.1]hept-2-yl)-N-[4-(4-chlorophenyl)-5,8-difluoro-1-oxophthalazin-2(1H)-yl]acetamide]
157 | 0.1 to 0.5 |  | O=C(Cc1ccc(Cl)cc1)Nn1nc(-c2ccccc2)c2ccccc2c1=O [Example 4, 2-(4-chlorophenyl)-N-(1-oxo-4-phenylphthalazin-2(1H)-yl)acetamide]
79 | 1 to 10 |  | CC(C)c1nn(NC(=O)CC23CC4CC(CC(C4)C2)C3)c(=O)c2c1C1CCC2CC1 [Example 8, 2-(1-adamantyl)-N-(4-isopropyl-1-oxo-5,6,7,8-tetrahydro-5,8-ethanophthalazin-2(1H)-yl)acetamide]
179 | 1 to 10 |  | O=C(Cc1cc(F)cc(F)c1)Nn1nc(-c2ccccc2)c2sccc2c1=O [Example 10, 2-(3,5-difluorophenyl)-N-(4-oxo-7-phenylthieno[2,3-d]pyridazin-5(4H)-yl)acetamide]
77 | 0.1 to 0.5 |  | O=C(Cc1cc(F)cc(F)c1)Nn1nc(C(F)(F)F)c2ccccc2c1=O [Example 11, 2-(3,5-difluorophenyl)-N-[1-oxo-4-(trifluoromethyl)phthalazin-2(1H)-yl]acetamide]
140 | < 0.1 |  | O=C(CC12CC3CC(CC(C3)C1)C2)Nn1nc(-c2ccccc2)c2c(F)ccc(F)c2c1=O [Example 15, 2-(1-adamantyl)-N-(5,8-difluoro-1-oxo-4-phenylphthalazin-2(1H)-yl)acetamide]
123 | 0.1 to 0.5 |  | O=C(CC12CC3CC(CC(C3)C1)C2)Nn1nc(Cl)c2ccccc2c1=O [Example 20, 2-(1-adamantyl)-N-(4-chloro-1-oxophthalazin-2(1H)-yl)acetamide]
82 | 1 to 10 |  | O=C(Cc1ccc(Cl)cc1)Nn1nc(Cl)c2ccccc2c1=O [Example 21, N-(4-chloro-1-oxophthalazin-2(1H)-yl)-2-(4-chlorophenyl)acetamide]
156 | 0.5 to 1 |  | O=C(Cc1cc(F)cc(F)c1)Nn1nc(C2CC2)c2ccccc2c1=O [Example 23, N-(4-cyclopropyl-1-oxophthalazin-2(1H)-yl)-2-(3,5-difluorophenyl)acetamide]

— US8629143B2, “Potassium channel modulators” (AbbVie Inc., priority 2009, dated 2014)
